Tests used:
[1] = tested on: activated NKT cells; experiment: Anergy: re-stimulation of splenocytes one month after in vivo treatment; design: species or system mice; conditions: for IFN-γ production on re-stimulation, compared to cells from vehicle-treated mice: 48 hours of re-stimulation, FIG. 13B; for Splenocyte proliferation on re-stimulation, compared to cells from vehicle-treated mice: re-stimulation with α-GalCer or β-ManCer, 3H-thymidine, 72-hour culture, FIG. 13A
Protocol: FIG. 13A is a graph showing splenocyte proliferation measured by ^3H-thymidine incorporation during the final 8 hours of a 72-hour culture after being re-stimulated in culture. Pretreatment with α-GalCer induces anergy but pretreatment with β-ManCer induces much less anergy.
FIG. 13B is a graph showing the amount of IFN-γ produced by the splenocyte culture after 48 hours of re-stimulation.
It is known that α-GalCer induces strong anergy of activated NKT cells for over a month after in vivo stimulation. […] Mice were treated with α-GalCer, β-ManCer, or vehicle, and one month later, splenocytes were re-stimulated, and the degree of activation was measured by proliferation and IFN-γ production.

[2] = tested on: CT26 lung metastasis; experiment: In vivo lung metastasis assay, CT26 colon carcinoma; design: species or system BALB/c mice; conditions: for Effect of TNF-α blockade (TNF-αR-Fc, etanercept) on protection: 100 μg etanercept every other day, FIG. 10C; for Effect of NOS inhibition (L-NAME vs D-NAME) on tumor protection: WT mice, 0.2 mg L-NAME i.p., FIG. 6, 10A; for Rank order of tumor protection: dose of 50 pmoles
Protocol: (§1) In vivo lung metastasis assay. 5×10^5 CT26 cells in 0.2 ml PBS were injected i.v. into the tail vein. Glycolipid or vehicle control (0.00025% Tween 20) was injected i.p. (in 0.2 ml PBS) within one hour after tumor challenge. Mice were sacrificed 12-16 days after tumor challenge, and lungs were stained and fixed and metastases were enumerated as previously described (Park, J. M., et al., International J. of Cancer, 114:80-87 (2004)). The same protocol was used for the B16F10 cell line, except that lungs were perfused with PBS instead of ink before removal.
For CD8^+T and NK cell depletion, mice were treated with anti-CD8 (200 μg/injection), anti-asialo GM1 (25 μl/injection), or control antibodies 1 day prior to tumor challenge, the day of challenge, and 5 and 10 days following tumor challenge. CD8^+T and NK cell depletion of >90% was confirmed by flow cytometric staining for CD8 (clone 53-6.7, BD Biosciences, Rockville, Md.) and pan-NK cell marker (clone DX5, eBioscience, San Diego, Calif.) at the conclusion of the experiment. For Gr-1^+ cell depletion, mice were injected i.p. with 100, 50, or 1 μg anti-Gr-1 antibody, 16 and 40 hours after tumor challenge. CD11b^+Gr-1^high cell depletion of >99% and CD11b^+Gr-1^intermediate cell depletion of >80% by 100 μg of anti-Gr-1 antibodies, was confirmed by flow cytometric staining for CD11b (clone M1/70, eBioscience), Gr-1 (clone RB6-8C5, BD Biosciences), Ly-6C (clone AL-21, BD Biosciences) and Ly6G. (clone 1A8, BD Biosciences). Where indicated, mice received 0.2 mg L-NAME or D-NAME i.p. twice per day on the day of tumor challenge, the day after tumor challenge, and once daily for 2 weeks after tumor injection. Blockade of TNF-α was achieved by administration of 100 μg of etanercept every other day, beginning immediately following tumor challenge, per the method of Fichtner-Feigl, S., et al., Cancer Res., 68:3467-3475 (2008). For PPARγ inhibition, mice were treated 0.15 mg/ml GW9662 (200 μL i.p.) or vehicle control (0.5% DMSO in PBS) immediately following tumor challenge, and then 30 minutes prior to glycolipid administration, via the method of Coste, A., et al., J. Immunol., 180:4939-4947 (2008).

[3] = tested on: IFN-γ, IL-4, IL-13, IL-12 (p70), and TNF-α in plasma; experiment: In vivo cytokine assay (plasma, multiplex); design: species or system BALB/c mice; conditions: 0-24 hours; for IFN-γ in plasma: 50 pmoles i.p. after CT26 i.v., FIG. 8A
Protocol: FIGS. 8A-8E show graphs where the cytokine production induced by the glycolipid panel was tested in vivo. BALB/c mice were challenged with CT26 (5×10^5) i.v. followed by 50 pmoles of glycolipid or vehicle control i.p. at time 0. Mice were bled retroorbitally at 0, 3, 6, 12, and 24 hours, and the amount of IFN-γ (8A), TNF-α (8B), IL-4 (8C), IL-12 (p70) (8D), and IL-13 (8E) in plasma was determined. Each data point represents mean±SD of triplicates. […] Little cytokine production was detected following OCH and AH04-2 administration. β-ManCer induced very little cytokine production except for some IL-12 and TNF-α.
In vivo cytokine assay. The concentration of IFN-γ, IL-4, IL-13, IL-12 (p70), and TNF-α in plasma samples was determined by MILLIPLEX cytokine multiplex immunoassay kit (Millipore, Billerica, Mass.) using a Bio-Plex system (Bio-Rad, Hercules, Calif.) according to manufacturer's instructions.

[4] = tested on: iNKT cells; experiment: In vitro iNKT activation (CFSE dilution, splenocytes); assay type: cell-based, mice; conditions: for Proliferation of iNKT cells (CFSE dilution): 3.5-day stimulation of mouse splenocytes, FIG. 3
Protocol: In vitro iNKT activation. Splenocytes were harvested from mice (n=3), and erythrocytes were depleted with ACK Lysis Buffer (Lonza, Walkersville, Md.). Cells were labeled with 0.1 μM CFSE (Invitrogen, Carlsbad, Calif.) for 15 minutes at room temperature. Labeled cells (4×10^6 cells/well of 24-well plate) were stimulated for 3.5 days with glycolipid or vehicle control. At the end of the culture, cells were harvested and stained with PBS57-loaded CD1d tetramer (NIH Tetramer Facility) and anti-CD3 (clone 145-2C11, Biolegend). The fluorescence of stained cells was measured by FACSCalibur (BD Biosciences), and data were analyzed by Flowjo (Tree Star, Inc., Ashland, Oreg.).

[5] = tested on: BALB/c splenocytes; experiment: In vitro cytokine assay (ELISA); assay type: cell-based, BALB/c mice; conditions: 48 hours
Protocol: In vitro cytokine assay. Splenocytes (8×10^5/well of 96 well plates) from BALB/c mice were stimulated with glycolipid or solvent control for 48 hours. Supernatants were collected, and the concentration of IFN-γ, IL-4, or IL-13 was determined by ELISA.

[6] = tested on: iNKT cells; experiment: Upregulation of activation markers CD25 and CD69 on iNKT cells; assay type: cell-based; conditions: mouse splenocytes stimulated overnight; data not shown
[7] = tested on: 24.9.E NKT cell hybridoma; experiment: Plate-bound mCD1d hybridoma stimulation assay, 24.9.E; assay type: cell-based, mouse
Protocol: (§2) Plate-bound mCD1d hybridoma stimulation assay. Protocol was modified from that of Gumperz et al. (Gumperz, J. E., et al., Immunity, 12(2):211-221 (2000)). mCD1d dimer/Ig fusion protein (BD Biosciences) was incubated with the indicated concentrations of glycolipid in pH 5 sodium acetate buffer containing 0.01% Tween20 and 45 μg/ml saposin C (provided by Nico Tjandra and Motoshi Suzuki [both from National Heart, Lung, and Blood Institute, NIH, Bethesda, Md., USA]) overnight at 37° C. The mCD1d dimers loaded with glycolipid were loaded onto 96-well Protein G Plates (Pierce, Rockford, Ill.) and incubated for 48 hours at 37° C. The plates were washed with PBS and tissue culture media to remove anything not coated on the plates. 1×10^5 24.9. E or DN32.D3 iNKT hybridoma cells were added to each well and incubated at 37° C. and 5% CO2 for 24 hours. Supernatants were collected and analyzed for IL-2 by ELISA.

[8] = tested on: B16F10 melanoma lung metastasis; experiment: In vivo lung metastasis assay, B16F10 melanoma; conditions: C57BL/6 mice, dose titration; FIG. 12
Protocol: as §1

[9] = tested on: DN32.D3 NKT cell hybridoma; experiment: Plate-bound mCD1d hybridoma stimulation assay, DN32.D3; assay type: cell-based, mouse
Protocol: as §2

CCCCCCCCCCCCCCCCCCCCCCCCCC(=O)N[C@@H](CO[C@H]1O[C@H](CO)[C@H](O)[C@H](O)[C@H]1O)[C@H](O)[C@H](O)CCCCCCCCCCCCCC [α-GalCer, α-galactosylceramide, reference compound]
IFN-γ production on re-stimulation, compared to cells from vehicle-treated mice [1]: severely suppressed
Splenocyte proliferation on re-stimulation, compared to cells from vehicle-treated mice [1]: severely suppressed
Effect of TNF-α blockade (TNF-αR-Fc, etanercept) on protection [2]: no effect
Tumor protection in IFN-γ knockout mice ([2]; IFN-γ−/− BALB/c, 50 pmoles, FIG. 9A): completely failed to induce any tumor protection
Effect of NOS inhibition (L-NAME vs D-NAME) on tumor protection ([2]; 50 pmoles glycolipid): no effect
Rank order of tumor protection ([2]; FIG. 2D): greatest protection
Potency relative to β-ManCer ([2]; results at the 5 pmole dose, FIG. 2D): about a log more potent
IFN-γ in plasma [3]: most IFN-γ
Proliferation of iNKT cells (CFSE dilution) [4]: 44%
IFN-γ production in vitro ([5]; ELISA, FIG. 7A): greatest IFN-γ production

CCCCCCCCCCCCCCCCCCCCCCCCCC(=O)N[C@@H](COC1OC(CO)C(O)C(O)C1O)[C@H](O)[C@H](O)CCCCCCCCCCCCCC (stereo partly drawn) [β-ManCer, 2-hexacosanoylamino-1-O-β-mannopyranosyl-D-ribo-1,3,4-octadecanetriol]
IFN-γ production on re-stimulation, compared to cells from vehicle-treated mice [1]: slight reduction
Splenocyte proliferation on re-stimulation, compared to cells from vehicle-treated mice [1]: slight reduction
Effect of TNF-α blockade (TNF-αR-Fc, etanercept) on protection [2]: completely reversed the protection
Effect of PPARγ inhibition with GW 9662 on induced protection ([2]; 0.15 mg/ml GW9662 200 μL i.p., 50 pmoles glycolipid, FIG. 2C): no effect
Potency of tumor protection relative to α-ManCer and β-GalCer ([2]; CT26 lung metastasis, 50 vs 5,000 pmoles): 100 fold
Fewer lung nodules compared to vehicle control mice ([2]; IFN-γ knockout mice, 50 pmoles, p=0.0079, FIG. 9A): 50%
Protection in IFN-γ−/− mice when NOS was inhibited ([2]; IFN-γ−/− mice, L-NAME, FIG. 10B): completely lost
Tumor protection in Jα18KO mice (lack only iNKT cells) ([2]; Jα18KO BALB/c mice, FIG. 2B): All protection was lost
Protection against CT26 lung metastasis ([2]; WT BALB/c, glycolipid i.p. within one hour after tumor challenge, β-ManCer 50 pmoles, FIG. 2A): strong protection
Effect of NOS inhibition (L-NAME vs D-NAME) on tumor protection ([2]; 50 pmoles glycolipid): significantly inhibited protection
Effect of depletion of Gr-1+ cells on tumor protection ([2]; anti-Gr-1 antibodies, FIG. 10D): no effect
Rank order of tumor protection ([2]; FIG. 2D): similarly protective
IFN-γ in plasma [3]: no substantial increase
IL-12 in plasma ([3]; 50 pmoles i.p.): only a modest increase
TNF-α in plasma ([3]; 50 pmoles i.p.): only a modest increase
IL-4 in plasma ([3]; 50 pmoles i.p., FIG. 8C): no substantial increase
IL-13 in plasma ([3]; 50 pmoles i.p., FIG. 8E): no substantial increase
Upregulation of CD25 and CD69 on iNKT cells [6]: induced upregulation
Increase in IL-2 production over unloaded mCD1d ([7]; 24.9.E): 25 fold
IL-2 production, glycolipid-loaded mCD1d dimers ([7]; 24.9.E, 24 hours, no APCs, FIG. 5): able to induce IL-2 production
IL-2 production, soluble glycolipid in the absence of CD1d ([7]; 24.9.E, FIG. 5): failed to induce IL-2 production above background
IL-2 production, difference (less) versus α-GalCer ([7]; stated for the 24.9.E and DN32.D3 hybridomas together): 10- to 50 fold
Tumor protection against B16F10 melanoma lung metastasis, relative to α-GalCer [8]: at least as potent
Inhibition of iNKT proliferation by CD1d-blocking antibody ([4]; 3.5-day stimulation): 86%
Proliferation of iNKT cells (CFSE dilution) [4]: 40%
Proliferation of iNKT cells with CD1d-blocking antibody ([4]; 3.5-day stimulation, CD1d-blocking antibody): 5.4%
Increase in IL-2 production over unloaded mCD1d ([9]; DN32.D3): over 500 fold
IL-2 production, glycolipid-loaded mCD1d dimers ([9]; DN32.D3, 24 hours, no APCs, FIG. 5): able to induce IL-2 production
IL-2 production, soluble glycolipid in the absence of CD1d ([9]; DN32.D3, FIG. 5): failed to induce IL-2 production above background
Cytokine production in vitro (overall) ([5]; IFN-γ, IL-4, IL-13): least cytokine production
Cytokines at concentrations less than 30 nM ([5]; glycolipid less than 30 nM): no cytokines detected

Reference: patent US9517243B2, “Beta-mannosylceramide and stimulation of NKT cell anti-tumor immunity” (The United States of America, as represented by the …, priority 2010, dated 2016)
